Test results published in US7282491B2, “Prokaryotic proteasomal proteases of Mycobacterium tuberculosis (MTB) as targets for antibiotic therapy” (Cornell Research Foundation, Inc., priority 2002, dated 2007).

Tests used:
[1] = test system: wt Mtb; type: cell-based, Mycobacterium tuberculosis
[2] = test system: wt Mtb; type: cell-based, Mycobacterium tuberculosis; details: for augmentation of anti-mycobacterial activity of nitrite, inhibitor added along with nitrite at day 0: pH 6.5
[3] = biological target: mycobacterial proteasome (Mycobacterium tuberculosis, UniProt P9WHT9); details: tetrapeptide substrate, 0.05% SDS; FIG. 11A
Protocol: To measure proteasomal protease activity, Mtb was lysed by agitation with zirconia silica beads. The soluble fraction was filtered through a 0.45 micron filter. Aliquots of the filtrate (120 g protein) were incubated with succinyl-leu-leu-val-tyr-alpha-methylcoumarin (SEQ ID NO: 1) in the presence of 0.05% SDS and fluorescence was monitored. […] The 50% inhibitory concentration was determined by applying the Hill equation to data from 2 experiments, each in triplicate.

[4] = test system: wt Mtb
[5] = test system: tubercle bacilli; details: cited from earlier work

Chain of mycobacterial proteasome (P9WHT9 58-291): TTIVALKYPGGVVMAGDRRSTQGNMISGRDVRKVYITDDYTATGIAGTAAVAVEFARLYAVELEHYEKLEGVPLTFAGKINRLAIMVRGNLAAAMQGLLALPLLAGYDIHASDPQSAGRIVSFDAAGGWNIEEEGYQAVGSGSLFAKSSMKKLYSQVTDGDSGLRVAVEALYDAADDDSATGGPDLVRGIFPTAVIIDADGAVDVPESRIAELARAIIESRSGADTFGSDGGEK
Chain of mycobacterial proteasome (P9WHU1 whole entry partner): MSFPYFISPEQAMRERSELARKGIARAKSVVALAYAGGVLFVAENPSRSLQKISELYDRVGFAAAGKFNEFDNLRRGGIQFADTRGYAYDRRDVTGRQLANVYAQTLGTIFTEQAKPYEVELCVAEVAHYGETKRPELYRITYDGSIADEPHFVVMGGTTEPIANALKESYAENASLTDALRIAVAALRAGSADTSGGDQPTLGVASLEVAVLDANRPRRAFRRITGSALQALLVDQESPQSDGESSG

| SMILES | growth of Mtb under standard culture conditions [1] | augmentation of anti-mycobacterial activity of nitrite, inhibitor added only at the subculture [2] | augmentation of nitrite-mediated injury of wt Mtb [2] | augmentation of the mycobacteriacidal effect of nitrite, inhibitors and nitrite removed simultaneously [2] | augmentation of anti-mycobacterial activity of nitrite, inhibitor added along with nitrite at day 0 [2] | inhibition of proteasomal protease activity in Mtb lysates [3] | outgrowth of Mtb in culture after nitrite [4] | potency of killing tubercle bacilli in vitro [5] [nM] |
| --- | --- | --- | --- | --- | --- | --- | --- | --- |
| CC(C)C[C@H](NC(=O)[C@H](Cc1cccc2ccccc12)NC(=O)N1CCOCC1)B(O)O [MLN-273, N-[4-morpholine]carbonyl-β-[1-naphthyl]-L-alanine-L-leucine boronic acid] | suppressed the growth of Mtb | just as effective | augmented nitrite-mediated injury | did not | increased the anti-mycobacterial activity of nitrite | potently blocked proteasomal protease activity | enhanced the ability of nitrite to suppress outgrowth of Mtb | – |
| CC[C@H](C)[C@H](NC(=O)[C@H]([C@@H](C)CC)N(C)C(C)=O)C(=O)N[C@H](C(=O)N[C@@H](CC(C)C)C(=O)[C@@]1(C)CO1)[C@@H](C)O [epoxomicin] | – | just as effective | – | augmented the mycobacteriacidal effect of nitrite | increased the anti-mycobacterial activity of nitrite | – | – | – |
| [N]=O [nitric oxide] | – | – | – | – | – | – | – | ~150 |
